Source: patent publication US20100203650A1, “BIOMOLECULE BINDING LIGANDS” (CAMBRIDGE ENTERPRISE LIMITED, priority 2007, published 2010)
“Also recorded” adds a separate entry of the source.

Biological target: T1, Factor VIII (Homo sapiens, UniProt P00451)
T1 construct: large-scale purification of a full-length recombinant Factor VIII
Assay: Factor VIII microplate assay
Type: binding
Protocol: On the basis of the results obtained from the initial collection, additional ligands were prepared and screened in relation to Factor VIII binding and elution behaviour. These studies have been performed either using a simple microtitre plate assay (resin volume 40 μL/well) to determine approximate Factor VIII binding affinity followed by more detailed studies using gravity-flow packed resin columns (0.5 mL resin volume). These packed column studies are more accurate and allow simple experiments to be conducted to determine absolute resin affinity by gradual saturation of the column (200 μL, […]) and following the protein concentration in the eluate after serial addition of each factor VIII aliquot applied to the column. In this way, the binding can be established and elution behaviour of each ligand in parallel.

T1 sequence (P00451 20-2351): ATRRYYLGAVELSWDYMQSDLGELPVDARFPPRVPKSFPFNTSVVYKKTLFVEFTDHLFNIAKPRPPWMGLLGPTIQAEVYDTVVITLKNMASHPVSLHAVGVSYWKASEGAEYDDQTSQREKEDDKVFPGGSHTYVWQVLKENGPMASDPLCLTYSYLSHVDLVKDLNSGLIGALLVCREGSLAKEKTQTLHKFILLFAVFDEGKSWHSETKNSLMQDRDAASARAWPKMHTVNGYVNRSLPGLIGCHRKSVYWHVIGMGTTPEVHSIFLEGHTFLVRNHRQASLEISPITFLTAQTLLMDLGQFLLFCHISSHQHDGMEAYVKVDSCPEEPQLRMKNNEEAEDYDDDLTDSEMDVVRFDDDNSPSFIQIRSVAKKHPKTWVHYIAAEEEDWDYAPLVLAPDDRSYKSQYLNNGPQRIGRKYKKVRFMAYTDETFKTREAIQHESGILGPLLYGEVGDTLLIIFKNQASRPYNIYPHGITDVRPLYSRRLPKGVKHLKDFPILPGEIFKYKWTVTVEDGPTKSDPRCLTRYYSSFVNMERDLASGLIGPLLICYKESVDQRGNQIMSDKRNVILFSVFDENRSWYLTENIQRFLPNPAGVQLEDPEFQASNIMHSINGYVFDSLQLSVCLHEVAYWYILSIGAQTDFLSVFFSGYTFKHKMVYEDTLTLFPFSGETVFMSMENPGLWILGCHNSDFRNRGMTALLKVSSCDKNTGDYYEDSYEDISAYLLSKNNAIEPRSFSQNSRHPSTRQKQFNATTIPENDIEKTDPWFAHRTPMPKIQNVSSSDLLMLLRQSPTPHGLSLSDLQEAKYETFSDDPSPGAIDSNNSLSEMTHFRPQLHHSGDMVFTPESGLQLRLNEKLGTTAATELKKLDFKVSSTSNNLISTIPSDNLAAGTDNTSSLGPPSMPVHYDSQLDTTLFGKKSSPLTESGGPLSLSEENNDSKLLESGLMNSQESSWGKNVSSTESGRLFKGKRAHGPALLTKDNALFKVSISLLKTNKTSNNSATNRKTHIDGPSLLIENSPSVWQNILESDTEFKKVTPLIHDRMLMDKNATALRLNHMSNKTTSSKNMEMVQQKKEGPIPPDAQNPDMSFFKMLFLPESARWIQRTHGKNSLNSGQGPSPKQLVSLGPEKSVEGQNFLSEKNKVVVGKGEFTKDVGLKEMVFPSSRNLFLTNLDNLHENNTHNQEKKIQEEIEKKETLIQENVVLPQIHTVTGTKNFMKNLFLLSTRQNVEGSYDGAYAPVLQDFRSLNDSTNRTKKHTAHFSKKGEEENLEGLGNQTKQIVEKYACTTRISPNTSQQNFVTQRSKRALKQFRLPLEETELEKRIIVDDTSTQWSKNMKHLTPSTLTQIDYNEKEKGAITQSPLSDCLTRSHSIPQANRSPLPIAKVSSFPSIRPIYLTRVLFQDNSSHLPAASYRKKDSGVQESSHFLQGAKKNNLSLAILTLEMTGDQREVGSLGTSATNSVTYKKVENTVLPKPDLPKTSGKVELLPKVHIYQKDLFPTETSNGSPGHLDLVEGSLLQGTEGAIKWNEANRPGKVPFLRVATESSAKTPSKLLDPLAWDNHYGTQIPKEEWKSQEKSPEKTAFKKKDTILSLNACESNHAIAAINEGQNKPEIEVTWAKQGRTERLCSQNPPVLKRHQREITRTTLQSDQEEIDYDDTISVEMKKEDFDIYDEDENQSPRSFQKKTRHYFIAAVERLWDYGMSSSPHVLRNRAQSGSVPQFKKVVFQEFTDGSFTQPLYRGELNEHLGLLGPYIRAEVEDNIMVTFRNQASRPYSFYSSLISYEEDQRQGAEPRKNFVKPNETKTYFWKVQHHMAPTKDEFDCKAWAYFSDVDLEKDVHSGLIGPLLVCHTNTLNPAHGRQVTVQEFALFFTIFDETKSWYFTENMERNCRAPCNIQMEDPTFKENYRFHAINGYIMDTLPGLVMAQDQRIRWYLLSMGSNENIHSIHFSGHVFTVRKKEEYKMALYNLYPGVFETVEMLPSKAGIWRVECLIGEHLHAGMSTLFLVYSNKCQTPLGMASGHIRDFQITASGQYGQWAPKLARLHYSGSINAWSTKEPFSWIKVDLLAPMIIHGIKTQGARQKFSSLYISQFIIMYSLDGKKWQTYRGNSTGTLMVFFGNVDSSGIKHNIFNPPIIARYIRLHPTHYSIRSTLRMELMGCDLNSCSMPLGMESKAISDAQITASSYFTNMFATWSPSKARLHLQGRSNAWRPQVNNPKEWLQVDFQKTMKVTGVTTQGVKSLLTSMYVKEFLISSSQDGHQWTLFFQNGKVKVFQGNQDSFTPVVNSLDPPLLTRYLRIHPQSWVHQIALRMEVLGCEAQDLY

## COC(=O)c1cccc(Nc2nc(C)nc(Nc3cccc4c(S(=O)(=O)OC)cccc34)n2)c1 [34/43]
  Factor VIII binding (in words): strongest Factor VIII binding and elution characteristics; also recorded: one of the highest Factor VIII binding potential
Initial collection U1-U4 and comparison ligand
  Factor VIII Bound: 106.3 µg/mL
